Measurements taken from ChEMBL document CHEMBL1201862, “PubChem BioAssay data set” (2004).
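How tested: cells in 96-well plates exposed to compound for 48 hours at five concentrations. GI50 = concentration required for 50% inhibition of growth.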 Active and inactive are the calls of the source. Rule as the data show it: active = GI50 up to about 1.1 µM and inactive = higher.

Legend:
Assay in all cases: NCI-60 cell line screen, 48 h
786-0 = test system: 786-0
A498 = test system: A498
COLO 205 = test system: COLO 205
HCC 2998 = test system: HCC 2998
HL-60 = test system: HL-60
HOP-62 = test system: HOP-62
Hs-578T = test system: Hs-578T
LOX IMVI = test system: LOX IMVI
MCF7 = test system: MCF7
MDA-MB-435 = test system: MDA-MB-435
MDA-N = test system: MDA-N
MOLT-4 = test system: MOLT-4
OVCAR-4 = test system: OVCAR-4
OVCAR-5 = test system: OVCAR-5
OVCAR-8 = test system: OVCAR-8
SF-539 = test system: SF-539
SK-MEL-2 = test system: SK-MEL-2
SK-MEL-5 = test system: SK-MEL-5
SK-OV-3 = test system: SK-OV-3
T47D = test system: T47D

SMILES	GI50 (786-0)	GI50 (A498)	GI50 (COLO 205)	GI50 (HCC 2998)	GI50 (HL-60)	GI50 (HOP-62)	GI50 (Hs-578T)	GI50 (LOX IMVI)	GI50 (MCF7)	GI50 (MDA-MB-435)	GI50 (MDA-N)	GI50 (MOLT-4)	GI50 (OVCAR-4)	GI50 (OVCAR-5)	GI50 (OVCAR-8)	GI50 (SF-539)	GI50 (SK-MEL-2)	GI50 (SK-MEL-5)	GI50 (SK-OV-3)	GI50 (T47D)
COc1ccc2nc3cc(Cl)ccc3c(NCCNC(=O)Cn3c(=O)n(C)c(=O)c4c3nc3c(c(=O)n(C)c(=O)n3C)[n+]4[O-])c2c1	43.1 µM (inactive)	> 60.4 µM (inactive)	> 67.1 µM (inactive)	30.2 µM (inactive)	> 100 µM (inactive)	20.7 µM (inactive)	20.3 µM (inactive)	38.3 µM (inactive)	33 µM (inactive)	> 45.7 µM (inactive)	46.3 µM (inactive)	22.9 µM (inactive)	> 64.7 µM (inactive)	> 72.8 µM (inactive)	2.47 µM (inactive)	23.7 µM (inactive)	35.2 µM (inactive)	58.2 µM (inactive)	32.1 µM (inactive)	35.6 µM (inactive)
CC(C)(C)c1cc(OCc2nnc3sc(-c4ccc(Cl)cc4)nn23)c(Cl)cc1OCc1nnc2sc(-c3ccc(Cl)cc3)nn12	3.97 µM (inactive)	8.73 µM (inactive)	7.46 µM (inactive)	2.34 µM (inactive)	2.46 µM (inactive)	5.87 µM (inactive)	5.7 µM (inactive)	5.04 µM (inactive)	3.17 µM (inactive)	0.478 µM (active)	0.644 µM (active)	4.93 µM (inactive)	3.98 µM (inactive)	29.7 µM (inactive)	3.93 µM (inactive)	2.57 µM (inactive)	7.91 µM (inactive)	0.726 µM (active)	4.06 µM (inactive)	1.97 µM (inactive)
Oc1c(CN2CCCC2)ccc2cccnc12	17.9 µM (inactive)	29.9 µM (inactive)	25.9 µM (inactive)	> 47.4 µM (inactive)	4.94 µM (inactive)	13.3 µM (inactive)	> 83.4 µM (inactive)	15.5 µM (inactive)	29.6 µM (inactive)	38.9 µM (inactive)	39.4 µM (inactive)	20.1 µM (inactive)	14.9 µM (inactive)	31.6 µM (inactive)	11 µM (inactive)	24 µM (inactive)	> 47 µM (inactive)	12.7 µM (inactive)	25.9 µM (inactive)	23 µM (inactive)
CC1(C)CC(=O)/C(=C/C2CCNC2=S)C(=O)N1 (stereo not given)	> 100 µM (inactive)	> 100 µM (inactive)	> 100 µM (inactive)	> 100 µM (inactive)	> 100 µM (inactive)	> 100 µM (inactive)	> 100 µM (inactive)	> 100 µM (inactive)	> 100 µM (inactive)	> 100 µM (inactive)	> 100 µM (inactive)	> 100 µM (inactive)	> 100 µM (inactive)	> 100 µM (inactive)	> 100 µM (inactive)	> 100 µM (inactive)	> 100 µM (inactive)	> 100 µM (inactive)	> 100 µM (inactive)	> 100 µM (inactive)
Cc1c(C)c(C)c(CSC(=N)N)c(C)c1C	15.9 µM (inactive)	16.2 µM (inactive)	14.9 µM (inactive)	14.7 µM (inactive)	8.57 µM (inactive)	15.5 µM (inactive)	15.6 µM (inactive)	26.2 µM (inactive)	17.1 µM (inactive)	14.2 µM (inactive)	16.9 µM (inactive)	15.5 µM (inactive)	15.6 µM (inactive)	14.5 µM (inactive)	24.1 µM (inactive)	15.7 µM (inactive)	14.6 µM (inactive)	13.7 µM (inactive)	16 µM (inactive)	14.6 µM (inactive)
CC(=O)OC12CC(C(F)(F)F)(C(F)(F)F)OC1(OC(C)=O)CC(C(F)(F)F)(C(F)(F)F)O2 (stereo not given)	2.9 µM (inactive)	2.14 µM (inactive)	3.95 µM (inactive)	9.08 µM (inactive)	1.89 µM (inactive)	25.4 µM (inactive)	13.3 µM (inactive)	1.73 µM (inactive)	0.426 µM (active)	2.13 µM (inactive)	5.92 µM (inactive)	1.06 µM (active)	4.23 µM (inactive)	9.29 µM (inactive)	2.71 µM (inactive)	2.07 µM (inactive)	5.75 µM (inactive)	0.385 µM (active)	4.94 µM (inactive)	1.34 µM (inactive)
c1ccc2cc(CNCCOCCOCCNCc3ccc4ccccc4c3)ccc2c1	1.57 µM (inactive)	1.71 µM (inactive)	1.48 µM (inactive)	0.208 µM (active)	1.85 µM (inactive)	1.85 µM (inactive)	1.57 µM (inactive)	1.46 µM (inactive)	1.79 µM (inactive)	1.8 µM (inactive)	1.65 µM (inactive)	1.92 µM (inactive)	2.47 µM (inactive)	1.9 µM (inactive)	1.77 µM (inactive)	1.85 µM (inactive)	1.91 µM (inactive)	2.39 µM (inactive)	3.13 µM (inactive)	2.74 µM (inactive)
CCCCc1ccc(Nc2ncc3ncn(COCCO)c3n2)cc1	26.6 µM (inactive)	46.6 µM (inactive)	36.1 µM (inactive)	20.3 µM (inactive)	23.8 µM (inactive)	26.6 µM (inactive)	20.8 µM (inactive)	17.9 µM (inactive)	28.5 µM (inactive)	29.4 µM (inactive)	32 µM (inactive)	21.6 µM (inactive)	41.1 µM (inactive)	32.7 µM (inactive)	29 µM (inactive)	29.3 µM (inactive)	25.2 µM (inactive)	21.8 µM (inactive)	79.8 µM (inactive)	28.4 µM (inactive)
